Data: patent publication US11701362B2, “Compositions and methods of use of cis-4-[2-{[(3S,4R)-3-fluorooxan-4-yl]amino}-8-(2,4,6-trichloroanilino)-9H-purin-9-yl]-1- methylcyclohexane-1-carboxamide” (Celgene Corporation, priority 2017, dated 2023)
Values after ≈ are worked out from the molar mass of the structure shown. Counter-ions that a name gives are not always drawn.

How the values were obtained:
Assay type in all cases: physicochemical
[1] = Tablet dissolution in pH 2 phosphate buffer and pH 5 phosphate buffer with 0.1% sodium laureth sulfate; conditions: tablets, pH 5 phosphate buffer and 0.1% sodium laureth sulfate
[2] = Solubility of Compound 1 citrate in pH 6.5 phosphate buffer with SLS
Procedure: Solubility of Compound 1 was determined in various percentages of sodium lauryl sulfate (SLS). 0.03% SLS was selected as the media for dissolution condition 3. Samples were filtered using a 0.2 μm nylon syringe filter, and analyzed by UPLC-UV utilizing the method parameters listed in Table 9.

[3] = Dissolution of drug in capsule in 0.01N HCl and 0.001N HCl at 37° C.; conditions: for Compound 1 released: 125 mg capsule, 37° C., 60 minutes
Procedure: To assess the feasibility of using Compound 1 in a capsule to support FIH study, a dissolution study with a capsule containing 125 mg Compound 1 free base monohydrate was performed in the media of 0.01N HCl and 0.001N HCl at 37° C. Capsule shell shrinkage was observed. […] Blend in capsule or other formulation approaches may be necessary.
A dissolution study for citrate salt in a capsule in 0.01N HCl was also carried out.

[4] = pKa determination
Procedure: (§1) Solubility Study: Compound 1 free base pKa was determined to be 5.14. […] Solubility in the preclinical formulation, 0.5% CMC/0.25% Tween 80, was determined to be 0.18 mg/ml at pH 8.1.

[5] = Bulk and tap density and flow properties (Carr's Index, Hausner's Ratio)
Procedure: Needle-like particle shapes have poor powder flow and low densities. […] Reduced drug loadings (dilution of the poor flow component) improved flow characteristics of the resultant blend.
The 5 formulations covered drug loadings of 1.8-23.0% and 1-25 mg strengths. The bulk and tap densities for each formulation are included in Table 30.
Flow property scales for Carr's (Compressibility) Index and Hausner's Ratio are described in Table 37. The flow of the blends was assessed as very poor to passible.

[6] = Solubility study (water, SGF, SIF, preclinical vehicle, bio-relevant media); conditions: for Solubility, Concentration: at 24 hours
Procedure: as §1

[7] = Solid state chemical and physical stability of free base monohydrate
Procedure: Chemical Stability Study: Solid state stability of Compound 1 free base monohydrate was evaluated at 80° C. for 2 weeks and 40° C./75% RH, 50° C./75% RH and 60° C. for up to 5 weeks.
This dehydrate form converted back to monohydrate immediately when samples were exposed to room temperature and RH>30%. If RH is in the range of 5-30%, the dehydrate form may take 1-3 days to convert back to monohydrate.

[8] = Solution and suspension stability; conditions: 37° C.
Procedure: The solution stability of Compound 1 free base in water, SGF (pH 1.3), SIF (pH 7.5), and 0.1N NaOH with and without light protection at 37° C. was tested.

C[C@]1(C(N)=O)CC[C@@H](n2c(Nc3c(Cl)cc(Cl)cc3Cl)nc3cnc(N[C@@H]4CCOC[C@H]4F)nc32)CC1 (relative stereo) [HCl salt of Compound 1, cis-4-[2-{[(3S,4R)-3-fluorooxan-4-yl]amino}-8-(2,4,6-trichloroanilino)-9H-purin-9-yl]-1-methylcyclohexane-1-carboxamide]
dissolution compared with free base and citrate salt [1]: higher dissolution

C[C@]1(C(N)=O)CC[C@@H](n2c(Nc3c(Cl)cc(Cl)cc3Cl)nc3cnc(N[C@@H]4CCOC[C@H]4F)nc32)CC1 (relative stereo) [Compound 1 citrate, cis-4-[2-{[(3S,4R)-3-fluorooxan-4-yl]amino}-8-(2,4,6-trichloroanilino)-9H-purin-9-yl]-1-methylcyclohexane-1-carboxamide]
solubility ([2]; 0.01% SLS): 0.000 mg salt/mL
solubility ([2]; 0.02% SLS): 0.001 mg salt/mL
solubility ([2]; 0.03% SLS): 0.054 mg salt/mL
solubility ([2]; 0.05% SLS): 0.336 mg salt/mL
solubility ([2]; 0.1% SLS): 0.807 mg salt/mL
dissolution profile compared to freebase monohydrate ([3]; capsule in 0.01N HCl): better dissolution profile

C[C@]1(C(N)=O)CC[C@@H](n2c(Nc3c(Cl)cc(Cl)cc3Cl)nc3cnc(N[C@@H]4CCOC[C@H]4F)nc32)CC1 [Compound 1, cis-4-[2-{[(3S,4R)-3-fluorooxan-4-yl]amino}-8-(2,4,6-trichloroanilino)-9H-purin-9-yl]-1-methylcyclohexane-1-carboxamide]
pKa [4]: ~5.1
Bulk Density [5]: 0.2 g/mL
Tap Density [5]: 0.38 g/mL
solubility ([6]; 0.5% CMC/0.25% Tween 80 (preclinical formulation), aqueous with cosolvent or surfactant or cyclodextrin, preclinical formulation 0.5% CMC/0.25% Tween 80, pH 8.1, read-out: solubility): 180 µg/mL (≈ 315 µM)
solubility ([6]; pH 4.5, aqueous buffer, read-out: solubility): ~250 µg/mL (≈ 438 µM)
solubility ([6]; simulated gastric fluid (SGF), simulated gastric fluid, simulated gastric fluids (SGF) (pH 1.9), read-out: solubility): 3500 µg/mL (≈ 6130 µM)
solubility ([6]; simulated gastric fluid, low pH (0.1 N HCl), read-out: solubility): ~1700 µg/mL (≈ 2980 µM)
solubility ([6]; simulated intestinal fluid (SIF), pH 7.3, fassgf or other biorelevant, read-out: solubility): 2 µg/mL (≈ 3.5 µM)
solubility ([6]; simulated intestinal fluids (SIF) (pH 7.3)): 2 µg/mL (≈ 3.5 µM)
solubility ([6]; water (pH 8.1), read-out: solubility): 3 µg/mL (≈ 5.26 µM)

C[C@]1(C(N)=O)CC[C@@H](n2c(Nc3c(Cl)cc(Cl)cc3Cl)nc3cnc(N[C@@H]4CCOC[C@H]4F)nc32)CC1 (relative stereo) [Compound 1 free base monohydrate, cis-4-[2-{[(3S,4R)-3-fluorooxan-4-yl]amino}-8-(2,4,6-trichloroanilino)-9H-purin-9-yl]-1-methylcyclohexane-1-carboxamide]
solid state chemical stability ([7]; 80° C. for 2 weeks, 40° C./75% RH, 50° C./75% RH and 60° C. up to 5 weeks): chemically relatively stable
time for the dehydrate form to convert back to monohydrate ([7]; RH in the range of 5-30%): 1 to 3 days
physical stability ([7]; heated at 60 and 80° C.): lost water and converted to a dehydrate form
Solubility, Concentration ([6]; FaSSGF): 2810 µg/mL
Solubility, Concentration ([6]; FaSSIF): 260 µg/mL
Solubility, Concentration ([6]; FeSSGF): 4 µg/mL
Solubility, Concentration ([6]; FeSSIF): 2070 µg/mL
pH @ 24 hr ([6]; solubility sample in FaSSGF): 1.84
pH @ 24 hr ([6]; solubility sample in FaSSIF): 6.48
pH @ 24 hr ([6]; solubility sample in FeSSGF): 6.31
pH @ 24 hr ([6]; solubility sample in FeSSIF): 4.94
Compound 1 released ([3]; 0.001N HCl): 10%
Compound 1 released ([3]; 0.01N HCl): About 80%

C[C@]1(C(N)=O)CC[C@@H](n2c(Nc3c(Cl)cc(Cl)cc3Cl)nc3cnc(N[C@@H]4CCOC[C@H]4F)nc32)CC1 (relative stereo) [Compound 1 free base, cis-4-[2-{[(3S,4R)-3-fluorooxan-4-yl]amino}-8-(2,4,6-trichloroanilino)-9H-purin-9-yl]-1-methylcyclohexane-1-carboxamide]
pKa [4]: 5.14
solution stability, remaining ([8]; 0.1N NaOH without light protection, day 1): 88%
solution stability, remaining ([8]; 0.1N NaOH without light protection, day 4): 61%
solution stability, remaining ([8]; water, SGF (pH 1.3), SIF (pH 7.5), 0.1N NaOH, 4 days, all except 0.1N NaOH without light protection): > 95%
